Laboratory results from ChEMBL document CHEMBL1201862, “PubChem BioAssay data set” (2004).
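Step 1: Grow cells in 96-well plates. Step 2: Expose to compound for 48 hours at 5 concentrations. Step 3: Interpolate endpoints linearly; if unreached, use highest concentration. GI50 = concentration required for 50% inhibition of growth.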 Activity calls are given as the source filed them. Rule as the data show it: active = GI50 up to about 1.1 µM and inactive = higher.

Key:
Assay in all cases: NCI anticancer screen, dose series, 48 h
[1] = system: K562
[2] = system: Malme-3M
[3] = system: U-251
[4] = system: EKVX
[5] = system: UACC-62
[6] = system: SK-MEL-5
[7] = system: COLO 205
[8] = system: UACC-257
[9] = system: SF-539
[10] = system: RXF 393
[11] = system: HCC 2998
[12] = system: UO-31
[13] = system: HL-60
[14] = system: MOLT-4
[15] = system: RPMI-8226

| SMILES | GI50 [1] | GI50 [2] | GI50 [3] | GI50 [4] | GI50 [5] | GI50 [6] | GI50 [7] | GI50 [8] | GI50 [9] | GI50 [10] | GI50 [11] | GI50 [12] | GI50 [13] | GI50 [14] | GI50 [15] |
| --- | --- | --- | --- | --- | --- | --- | --- | --- | --- | --- | --- | --- | --- | --- | --- |
| CCOC(=O)CC1=CSC2=NCCN12 | > 100 µM (inactive) | > 100 µM (inactive) | > 100 µM (inactive) | > 100 µM (inactive) | > 100 µM (inactive) | > 100 µM (inactive) | > 100 µM (inactive) | > 100 µM (inactive) | > 100 µM (inactive) | > 100 µM (inactive) | > 100 µM (inactive) | > 100 µM (inactive) | > 100 µM (inactive) |  |  |
| CC(C)=CCc1c(O)cc(O)c2c1OC(c1ccc(O)cc1)C(O)C2=O (stereo unspecified) | 20.2 µM (inactive) | 25.5 µM (inactive) | 25.2 µM (inactive) | 25.6 µM (inactive) | 21.4 µM (inactive) | 22.3 µM (inactive) | 31 µM (inactive) | 36.2 µM (inactive) | 18.4 µM (inactive) | 20.3 µM (inactive) | 23.1 µM (inactive) | 40 µM (inactive) |  | > 10 µM (inactive) |  |
| C/C(CC(=O)Nc1ccc(Cl)cc1)=N\NC(=O)C[n+]1ccccc1 | > 100 µM (inactive) | > 100 µM (inactive) | > 100 µM (inactive) | > 100 µM (inactive) | > 100 µM (inactive) | > 100 µM (inactive) | > 100 µM (inactive) | > 100 µM (inactive) | > 100 µM (inactive) | > 100 µM (inactive) | > 100 µM (inactive) | > 100 µM (inactive) | > 100 µM (inactive) | > 100 µM (inactive) | > 100 µM (inactive) |
| C/C(=C/C(=O)Nc1ccccc1)Nc1onc(C)c1C | > 100 µM (inactive) | > 100 µM (inactive) | > 100 µM (inactive) | > 100 µM (inactive) | > 100 µM (inactive) | > 100 µM (inactive) | > 100 µM (inactive) | > 100 µM (inactive) | > 100 µM (inactive) | > 100 µM (inactive) | > 100 µM (inactive) | > 100 µM (inactive) | > 100 µM (inactive) | > 100 µM (inactive) | > 100 µM (inactive) |
| CCOc1cccc2sc(N)nc12 | > 100 µM (inactive) | > 100 µM (inactive) | > 100 µM (inactive) | 49 µM (inactive) | > 100 µM (inactive) | > 100 µM (inactive) | > 100 µM (inactive) | > 100 µM (inactive) | > 100 µM (inactive) | > 100 µM (inactive) | > 100 µM (inactive) | 56.1 µM (inactive) | > 100 µM (inactive) | > 100 µM (inactive) | > 100 µM (inactive) |
| COc1cc(NC(C)=O)c2[nH]c3c(C)cc(NC(C)=O)c(C)c3c2c1 | > 100 µM (inactive) |  | > 100 µM (inactive) | > 100 µM (inactive) |  | > 100 µM (inactive) | > 100 µM (inactive) |  | > 100 µM (inactive) | > 100 µM (inactive) | > 100 µM (inactive) | > 100 µM (inactive) | > 100 µM (inactive) | > 100 µM (inactive) | > 100 µM (inactive) |
| CSc1nc2c(ncn2C2OC(CO)C(O)C(O)C2O)c(=O)[nH]1 (stereo unspecified) | > 100 µM (inactive) | > 100 µM (inactive) | > 83.8 µM (inactive) | > 100 µM (inactive) | > 100 µM (inactive) | > 100 µM (inactive) | > 100 µM (inactive) | > 100 µM (inactive) | > 100 µM (inactive) | > 100 µM (inactive) | > 100 µM (inactive) | > 100 µM (inactive) | > 100 µM (inactive) | > 100 µM (inactive) | > 100 µM (inactive) |
| COc1cc(C(=O)C/C(CCC(=O)Nc2ccc(Cl)cc2Cl)=N/NC(=O)C(N)=O)ccc1O | 76.2 µM (inactive) | > 100 µM (inactive) | > 100 µM (inactive) | > 100 µM (inactive) | 65.9 µM (inactive) | > 100 µM (inactive) | > 100 µM (inactive) | > 100 µM (inactive) | > 100 µM (inactive) |  | > 100 µM (inactive) | 72.9 µM (inactive) | > 100 µM (inactive) | > 100 µM (inactive) | > 100 µM (inactive) |
| CC(=O)CCC#Cc1ccccc1C(=O)C(C)=[N+]=[N-] | 20.8 µM (inactive) | 19.6 µM (inactive) | 36.8 µM (inactive) | 81.8 µM (inactive) | 16.1 µM (inactive) | 15.4 µM (inactive) | 14.9 µM (inactive) | 53 µM (inactive) | 97.3 µM (inactive) | 23.6 µM (inactive) | > 100 µM (inactive) | 44.4 µM (inactive) | 13.2 µM (inactive) | 19.8 µM (inactive) | 17.4 µM (inactive) |
| COc1cc(OC)c(C(=O)c2cccs2)cc1N | > 100 µM (inactive) | > 100 µM (inactive) | > 100 µM (inactive) | > 100 µM (inactive) | > 100 µM (inactive) | > 100 µM (inactive) | > 100 µM (inactive) | > 100 µM (inactive) | > 100 µM (inactive) | > 100 µM (inactive) | > 100 µM (inactive) | 96.6 µM (inactive) |  | > 100 µM (inactive) | > 100 µM (inactive) |
| Cc1c(C)c2cc3c(=O)c(CCl)coc3c(C)c2oc1=O | > 100 µM (inactive) | > 100 µM (inactive) | > 100 µM (inactive) | > 100 µM (inactive) | > 100 µM (inactive) | > 100 µM (inactive) | > 100 µM (inactive) | > 100 µM (inactive) | > 100 µM (inactive) | 57 µM (inactive) | > 100 µM (inactive) | > 100 µM (inactive) | > 100 µM (inactive) | > 100 µM (inactive) | 75 µM (inactive) |
| COc1cccc(N[C@@H]2c3cc4c(cc3C(c3cc(OC)c(O)c(OC)c3)[C@H]3C(=O)OCC32)OCO4)c1 (stereo partly specified) | 0.531 µM (active) | 1.79 µM (inactive) | 0.411 µM (active) | 2.56 µM (inactive) | 0.24 µM (active) | 0.8 µM (active) | 2.11 µM (inactive) | 0.44 µM (active) | 0.369 µM (active) | 1.07 µM (active) | 1.36 µM (inactive) | 0.302 µM (active) | 0.0499 µM (active) | < 0.01 µM (active) | 0.186 µM (active) |
| COc1ccc2c(c1)OCCc1cn[nH]c1-2 | 41.3 µM (inactive) | 38.9 µM (inactive) | 28.8 µM (inactive) | 4.44 µM (inactive) | 22.8 µM (inactive) | 29.2 µM (inactive) | 29.3 µM (inactive) | 32.7 µM (inactive) | 32.7 µM (inactive) | 61.2 µM (inactive) | 83.4 µM (inactive) | 32.6 µM (inactive) | 13.3 µM (inactive) | 20.8 µM (inactive) |  |
| Cc1ccccc1NC(=O)C(=O)CC(=O)c1ccc([N+](=O)[O-])cc1 |  | > 100 µM (inactive) | > 100 µM (inactive) | > 100 µM (inactive) | > 100 µM (inactive) |  | > 100 µM (inactive) | > 100 µM (inactive) | > 100 µM (inactive) | > 100 µM (inactive) | 23.8 µM (inactive) | > 100 µM (inactive) |  |  | > 100 µM (inactive) |
